In one test the target is T1, α7 nAChR (Rattus norvegicus, UniProt Q05941).
T1 construct: crude synaptic membrane preparations from rat cerebral cortex, striatum and hippocampus; from tissue; host or cells: rat cerebral cortex, striatum and hippocampus (crude synaptic membranes, P2 fraction)
The test is described as follows: Binding of 3H-MLA to α7 nAChR, crude synaptic membranes. Conditions: read-out: α7 (% Inh @ 10 uM). As to the method: α7 Nicotinic Acetylcholine Receptor (α7nAChR)
In Vitro Protocol for Determination of α7nAChR Binding Potencies of Ligands
Binding of ^3H-MLA (methylcaconitine) to neuronal nicotinic acetylcholine receptors was accomplished using crude synaptic membrane preparations from rat cerebral cortex, striatum and hippocampus. Either fresh or frozen membranes were homogenized in ˜50 volumes of 10 mM HEPES (N-2-Hydroxyethylpiperazine-N′-2-Ethanesulfonic acid, pH 7.4) and centrifuged at 42,000×g. The P2 fraction was resuspended in ˜40 volumes of 10 mM HEPES and centrifuged at 42,000×g. This step was repeated and the P2 fraction was resuspended in 25 volumes (e.g. 1 g of original into 25 mL) of a medium comprised of Na^+-HEPES buffer (10 mM, pH 7.4), 5 mM MgCl2, 0.01% powdered bovine serum albumin (BSA), and 100 mM NaCl. To initiate the binding reaction, test compound (100 μL), Na-HEPES buffered incubation medium (400 μL), ^3H-MLA (250 μL) and the suspension of biological membranes (250 μL) were mixed, and then the samples were incubated at 23° C. for 40 minutes., The binding reaction was terminated by filtration using a Brandel Cell Harvester, and the amount of bound ^3H-MLA for each sample was quantitated using a Wallac LKB 1205 Betaplate liquid scintillation counter. All test compounds were screened at 10 μM in quadruplicate. Nonspecific binding was determined using 10 μM MLA to block all binding of ^3H-MLA to the α7 nAChR. The activity of each test compound was calculated as follows. After correcting for nonspecific binding, the percent inhibition of specific binding (total binding minus nonspecific) was calculated. Each active compound was further tested at five concentrations to generate a concentration-inhibition curve. The IC50 values were determined using the Prism (GraphPad Software) nonlinear regression program.

For another test, the target named is T2, α4β2 nAChR (Rattus norvegicus, UniProt P09483+P12390).
T2 construct: crude synaptic membrane preparations from rat cerebral cortex, striatum and hippocampus; from tissue; host or cells: rat cerebral cortex, striatum and hippocampus (crude synaptic membranes, P2 fraction)
T2 sequence (P09483 31-630): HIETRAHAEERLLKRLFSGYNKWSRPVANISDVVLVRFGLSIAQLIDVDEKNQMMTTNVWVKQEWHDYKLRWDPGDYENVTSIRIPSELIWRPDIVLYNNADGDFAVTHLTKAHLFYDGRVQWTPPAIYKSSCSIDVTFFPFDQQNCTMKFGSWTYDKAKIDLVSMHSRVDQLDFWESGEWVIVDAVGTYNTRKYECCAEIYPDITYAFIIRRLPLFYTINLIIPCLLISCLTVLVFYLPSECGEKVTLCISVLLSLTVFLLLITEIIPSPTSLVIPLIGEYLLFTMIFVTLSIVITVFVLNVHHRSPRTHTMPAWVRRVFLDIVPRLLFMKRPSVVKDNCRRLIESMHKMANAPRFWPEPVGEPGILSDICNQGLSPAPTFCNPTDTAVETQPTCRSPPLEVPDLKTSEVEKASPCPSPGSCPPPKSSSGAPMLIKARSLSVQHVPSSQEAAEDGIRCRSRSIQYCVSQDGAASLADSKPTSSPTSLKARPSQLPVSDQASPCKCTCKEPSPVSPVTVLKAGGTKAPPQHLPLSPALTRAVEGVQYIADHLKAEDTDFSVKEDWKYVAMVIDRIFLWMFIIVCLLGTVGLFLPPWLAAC
T2 sequence (P12390 25-500): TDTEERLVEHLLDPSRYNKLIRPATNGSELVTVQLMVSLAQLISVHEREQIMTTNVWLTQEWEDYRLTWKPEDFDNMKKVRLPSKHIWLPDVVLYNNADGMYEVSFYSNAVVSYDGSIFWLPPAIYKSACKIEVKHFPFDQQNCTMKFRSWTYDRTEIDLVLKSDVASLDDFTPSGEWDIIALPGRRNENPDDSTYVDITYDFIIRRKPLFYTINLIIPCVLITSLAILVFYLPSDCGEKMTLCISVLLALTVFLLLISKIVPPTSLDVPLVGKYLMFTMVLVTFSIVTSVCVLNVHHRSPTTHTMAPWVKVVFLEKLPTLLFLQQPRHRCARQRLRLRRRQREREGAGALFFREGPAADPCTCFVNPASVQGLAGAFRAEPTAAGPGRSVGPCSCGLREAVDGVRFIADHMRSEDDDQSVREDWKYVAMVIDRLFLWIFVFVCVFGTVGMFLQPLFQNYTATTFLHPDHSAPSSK
The test is described as follows: Binding of 3H-cytisine to α4β2 nAChR, crude synaptic membranes. Conditions: for inhibition at 10 µM: read-out: α4β2 % Inhibition at 10 μM. The procedure:
α4β2 Nicotinic Acetylcholine Receptor (α4β2 nAChR)
In Vitro Protocol for Determination of α4β2 nAChR Binding Potencies of Ligands
Binding of ^3H-cytisine to neuronal nicotinic acetylcholine receptors was accomplished using crude synaptic membrane preparations from rat cerebral cortex, striatum and hippocampus. Either fresh or frozen membranes were homogenized in ˜50 volumes of 10 mM HEPES (N-2-Hydroxyethylpiperazine-N′-2-Ethanesulfonic acid, pH 7.4) and centrifuged at 42,000×g. The P2 fraction was resuspended in ˜40 volumes of 10 mM HEPES and centrifuged at 42,000×g. This step was repeated and the P2fraction was resuspended in 25 volumes (e.g. 1 g of original into 25 mL) of a medium comprising Na^+-HEPES buffer (10 mM, pH 7.4), 5 mM MgCl2, 0.01% powdered bovine serum albumin (BSA) and 100 mM NaCl. To initiate the binding reaction, test compound (100 μL), Na-HEPES buffered incubation medium (400 μL), ^3H-cytisine (250 μL) and the suspension of biological membranes (250 μL) were mixed, and then the samples were incubated at 23° C. for 40 minutes. The binding reaction was terminated by filtration using a Brandel Cell Harvester and the amount of bound ^3H-cytisine for each sample was quantitated using a Wallac LKB 1205 Betaplate liquid scintillation counter. All test compounds were screened at 10 μM in quadruplicate. Nonspecific binding was determined using 10 μM (+)-epibatidine to block all binding of ^3H-cytisine to the α4β2 nAChR. The activity of each test compound was calculated as follows. After correcting for nonspecific binding, the percent inhibition of specific binding (total binding minus nonspecific) was calculated. Each active compound was further tested at five concentrations to generate a concentration-inhibition curve. The IC50 values were determined using the Prism (GraphPad Software) nonlinear regression program.

Setting [1] is: 3H-cytisine, rat cerebral cortex, striatum and hippocampus membranes, IC50 from five concentrations, read-out: α4β2.

The structures appear in SMILES notation. Like-named read-outs stand apart in the source and are kept apart here.

This note sets out measurements from patent US6888001B2, “Pyridyl ethers and thioethers as ligands for nicotinic acetylcholine receptor and its therapeutic application” (priority 1998, dated 2005).

T1 sequence (Q05941 23-502): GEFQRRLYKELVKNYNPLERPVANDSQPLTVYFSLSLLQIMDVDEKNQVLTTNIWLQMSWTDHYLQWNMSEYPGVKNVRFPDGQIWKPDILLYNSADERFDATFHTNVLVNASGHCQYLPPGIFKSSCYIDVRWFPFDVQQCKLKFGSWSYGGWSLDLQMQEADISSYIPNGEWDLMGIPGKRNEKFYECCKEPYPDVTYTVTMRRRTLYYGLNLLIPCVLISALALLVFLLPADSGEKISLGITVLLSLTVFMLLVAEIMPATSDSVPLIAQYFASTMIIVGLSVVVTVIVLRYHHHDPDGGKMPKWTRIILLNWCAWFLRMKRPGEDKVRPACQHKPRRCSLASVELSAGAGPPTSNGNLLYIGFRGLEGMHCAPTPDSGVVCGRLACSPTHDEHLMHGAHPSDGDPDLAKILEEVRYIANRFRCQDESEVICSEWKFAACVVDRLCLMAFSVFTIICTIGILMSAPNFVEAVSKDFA

`c1cncc(OC2CNC2)c1` [Example 1, 3-(3-Azetidinyloxy)-pyridine]: the inhibition at 10 µM was determined as 21% on α7 nAChR and 46% at α4β2 nAChR.

As to `c1cncc(OC2CCNC2)c1` (stereo not drawn) [Example 2, 3-(3-Pyrrolidinyloxy)-pyridine], the inhibition at 10 µM at α7 nAChR is -15%. Besides, the IC50 at α4β2 nAChR (setting [1]) came out at 209 nM.

In the case of `c1cncc(O[C@H]2CCNC2)c1` [Example 3, 3-(3-(S)-Pyrrolidinyloxy)-pyridine], at α7 nAChR, the inhibition at 10 µM worked out at 5%. Further, on α4β2 nAChR (setting [1]), the IC50 was found to be 449 nM.

In the case of `c1cncc(O[C@@H]2CCNC2)c1` [Example 4, 3-(3-(R)-Pyrrolidinyloxy)-pyridine], the inhibition at 10 µM at α7 nAChR came to 11%. Also, at α4β2 nAChR (setting [1]), the IC50 was 45 nM.

For `CN1CC[C@@H](Oc2cccnc2)C1` [Example 5, 3-(1-Methyl-3-(R)-pyrrolidinyloxy)-pyridine], the inhibition at 10 µM at α7 nAChR turned out to be 20%. Further, on α4β2 nAChR (setting [1]), the IC50 worked out at 544 nM.

On to `Clc1ccc(O[C@@H]2CCNC2)cn1` [Example 6, 2-Chloro-5-(3-(R)-pyrrolidinyloxy)-pyridine], for which, on α7 nAChR, the inhibition at 10 µM was determined as 20%. On α4β2 nAChR, this compound returned an IC50 of 466 nM.

Regarding `CN1CCC(Oc2cccnc2)C1` (stereo not drawn) [Example 7, 3-(1-Methyl-3-pyrrolidinyloxy)-pyridine], at α7 nAChR, the inhibition at 10 µM turned out to be 22%. In addition, at α4β2 nAChR (setting [1]), the IC50 amounted to 92 nM.

In the case of `CCN1CCC(Oc2cccnc2)C1` (stereo not drawn) [Example 8, 3-(1-Ethyl-3-pyrrolidinyloxy)-pyridine], the inhibition at 10 µM at α7 nAChR worked out at 18%; on α4β2 nAChR, 71%.

Consider `CC(C)N1CCC(Oc2cccnc2)C1` (stereo not drawn) [Example 9, 3-(1-Isopropyl-3-pyrrolidinyloxy)-pyridine], for which the inhibition at 10 µM on α7 nAChR came out at 19%; on α4β2 nAChR, 30%.

For the compound `c1cncc(OC2CCCNC2)c1` (stereo not drawn) [Example 10, 3-(3-Piperidinyloxy)-pyridine], at α7 nAChR, the inhibition at 10 µM turned out to be 19%. In addition, the IC50 on α4β2 nAChR (setting [1]) was found to be 204 nM.

Consider `c1cncc(O[C@H]2CCCNC2)c1` [Example 11, 3-(3-(S)-Piperidinyloxy)-pyridine], for which the inhibition at 10 µM at α7 nAChR came to 86%. On α4β2 nAChR, this compound had an IC50 of 673 nM.

With `Clc1ncc(O[C@@H]2CCNC2)cc1Br` [Example 12, 2-Chloro-3-bromo-5-(3-(R)-pyrrolidinyloxy)-pyridine], the inhibition at 10 µM on α7 nAChR amounted to 11%. Moreover, the IC50 on α4β2 nAChR (setting [1]) worked out at 94 nM.

In the case of `N#Cc1ccc(-c2cc(O[C@@H]3CCNC3)cnc2Cl)cc1` [Example 13, 2-Chloro-3-(4-cyano)phenyl-5-(3-(R)-pyrrolidinyloxy)-pyridine], the inhibition at 10 µM at α7 nAChR worked out at 26%. Further, the IC50 on α4β2 nAChR (setting [1]) turned out to be 22 nM.

Turning to `COc1cccc(-c2cc(O[C@@H]3CCNC3)cnc2Cl)c1` [Example 14, 2-Chloro-3-(3-methoxy)phenyl-5-(3-(R)-pyrrolidinyloxy)-pyridine], the inhibition at 10 µM on α7 nAChR came out at 33%. The IC50 on α4β2 nAChR (setting [1]) is 58 nM.

As for `C[Si](C)(C)C#Cc1ccc(-c2cc(O[C@@H]3CCNC3)cnc2Cl)cc1` [Example 15, 2-Chloro-3-(4-trimethylsilylethynyl)phenyl-5-(3-(R)-pyrrolidinyloxy)-pyridine], the inhibition at 10 µM on α7 nAChR worked out at 22%. On α4β2 nAChR, this compound showed an IC50 of 25 nM.
